Legend:
[1] = Cytotoxicity against human renal cancer cells assessed as cellular growth at 10 uM after 48 hrs by SRB assay relative to control; type: functional, Cancer cell lines
[2] = Cytotoxicity against human ovarian cancer cells assessed as cellular growth at 10 uM after 48 hrs by SRB assay relative to control; type: functional, Cancer cell lines
[3] = Cytotoxicity against human prostate cancer cells assessed as cellular growth at 10 uM after 48 hrs by SRB assay relative to control; type: functional, Cancer cell lines
[4] = Cytotoxicity against human non-small cell lung cancer cells assessed as cellular growth at 10 uM after 48 hrs by SRB assay relative to control; type: functional, Cancer cell lines
[5] = Cytotoxicity against human melanoma cells assessed as cellular growth at 10 uM after 48 hrs by SRB assay relative to control; type: functional, Melanoma cell
[6] = Cytotoxicity against human leukemia cells assessed as cellular growth at 10 uM after 48 hrs by SRB assay relative to control; type: functional, Leukemia cell
[7] = Cytotoxicity against human colon cancer cells assessed as cellular growth at 10 uM after 48 hrs by SRB assay relative to control; type: functional, Cancer cell lines
[8] = Cytotoxicity against human CNS cancer cells assessed as cellular growth at 10 uM after 48 hrs by SRB assay relative to control; type: functional, Cancer cell lines
[9] = Cytotoxicity against human breast cancer cells assessed as cellular growth at 10 uM after 48 hrs by SRB assay relative to control; type: functional, Cancer cell lines
[10] = system: CCRF-CEM; experiment: Cytotoxicity against human CCRF-CEM cells after 48 hrs by SRB assay; type: functional
[11] = system: MCF7; experiment: Cytotoxicity against human MCF7 cells after 48 hrs by SRB assay; type: functional; conditions: MCF7, 48 h
[12] = system: MDA-MB-435; experiment: Cytotoxicity against human MDA-MB-435 cells after 48 hrs by SRB assay; type: functional; conditions: MDA-MB-435, 48 h, read-out: pLC50 (the source's name) (converted)
[13] = system: SNB-19; experiment: Cytotoxicity against human SNB19 cells after 48 hrs by SRB assay; type: functional; conditions: SNB-19, 48 h, read-out: pLC50 (the source's name) (converted)
[14] = system: HCT-15; experiment: Cytotoxicity against human HCT15 cells after 48 hrs by SRB assay; type: functional; conditions: HCT-15, 48 h, read-out: pTGI (converted)
[15] = system: HT-29; experiment: Cytotoxicity against human HT-29 cells after 48 hrs by SRB assay; type: functional; conditions: HT-29, 48 h, read-out: pLC50 (the source's name) (converted)
[16] = system: HCC 2998; experiment: Cytotoxicity against human HCC2998 cells after 48 hrs by SRB assay; type: functional; conditions: HCC 2998, 48 h, read-out: pLC50 (the source's name) (converted)
[17] = system: A549; experiment: Cytotoxicity against human A549 cells after 48 hrs by SRB assay; type: functional; conditions: A549, 48 h, read-out: pLC50 (converted)
[18] = Cytotoxicity against human EKVX cells after 48 hrs by SRB assay; type: functional; conditions: read-out: pLC50 (the source's name) (converted)
[19] = system: RPMI-8226; experiment: Cytotoxicity against human RPMI8226 cells after 48 hrs by SRB assay; type: functional; conditions: RPMI-8226, 48 h, read-out: pLC50 (converted)
[20] = system: K562; experiment: Cytotoxicity against human K562 cells after 48 hrs by SRB assay; type: functional; conditions: K562, 48 h, read-out: pLC50 (the source's name) (converted)
[21] = system: MOLT-4; experiment: Cytotoxicity against human MOLT4 cells after 48 hrs by SRB assay; type: functional; conditions: MOLT-4, 48 h, read-out: pLC50 (the source's name) (converted)

Structure (SMILES)	Activity [1] [%]	Activity [2] [%]	Activity [3] [%]	Activity [4] [%]	Activity [5] [%]	Activity [6] [%]	Activity [7] [%]	Activity [8] [%]	Activity [9] [%]	other results
O=C(CCCn1c(=O)c2sc3ccccc3c2n2nnc(-c3ccccc3)c12)NCCc1c[nH]cn1	-34	-16	-41	-26	-57	71	-49	-18	-5	TGI ([10]; read-out: pTGI (converted)): 100 µM
CN1CCN(CCCn2c(=O)c3sc4ncccc4c3n3nnc(-c4ccccc4)c23)CC1	-14	7	39	14	-78	-22	-37	-43	-23	–
O=C(CCCn1c(=O)c2sc3ncccc3c2n2nnc(-c3ccccc3)c12)NCCc1c[nH]cn1	79	59	46	88	71	61	49	60	79	LC50 ([11]; read-out: pLC50 (converted)): > 100 µM; TGI ([11]; read-out: pTGI (converted)): 100 µM; CC50 [12]: > 100 µM; CC50 [13]: > 100 µM; TGI [14]: 100 µM; CC50 [15]: > 100 µM; CC50 [16]: > 100 µM; CC50 [17]: > 100 µM; CC50 [18]: > 100 µM; CC50 [19]: > 100 µM; CC50 [20]: > 100 µM; CC50 [21]: > 100 µM; CC50 ([10]; read-out: pLC50 (the source's name) (converted)): > 100 µM

Reference: ChEMBL document CHEMBL2401728, “An unexpected Dimroth rearrangement leading to annelated thieno[3,2-d][1,2,3]triazolo[1,5-a]pyrimidines with potent antitumor activity” (Eur J Med Chem, 2013)
